Source: patent US20240139162A1, “Benzophenanthridine Alkaloids and Their Methods of Use” (Chengdu Anticancer Bioscience, LTD., priority 2019, published 2024)
Entries after “also recorded” stand apart in the source; their conditions may differ. Where two headings read alike, the source gives them in different places.

Key:
[1] = system: RPE cell lines (RPE NEO, RPE MBH, RPE MBC, RPE MA, RPE MP, RPE MI, RPE MYC Nick); test: MTT assay, RPE cell lines expressing oncogenes; type: cell-based, human; settings: RPE cell lines compared with RPE NEO control (FIG. 11)
[2] = system: Rat1A cell lines (Rat1A C, Rat1A MYC, Rat1A E2F1, Rat1A E2F3); test: MTT assay, Rat1A cell lines expressing oncogenes; type: cell-based; settings: Rat1A cell lines compared to Rat1A C (FIG. 12)
Experimental: (§1) Cells were split, plated in appropriate culture media and allowed to adhere. After 18 hours, corynoline and acetylcorynoline were added to a cell line selected from below. At 72 h or 96 h, MTT was added and at 75 h or 99 h, the A570 nm was recorded. The concentration ranged from 0.02 μM to 40 μM.
(§2) The following Rat1A cell lines were used in these studies: Rat1 A C, Rat1A MYC, Rat1A E2F1, and Rat1A E2F3. The cell line was then engineered as control (C), to overexpress the MYC oncogene (Rat1A-MYC), to overexpress the E2F1 oncogene (Rat1A-E2F1), or to overexpress the E2F3 oncogene (Rat1A-E2F3).

RPE MBC cells [3] = test: Mitotic kinetochore analysis with CREST antibody; type: cell-based, human
Experimental: Following treatment with acetylcorynoline, RPE MBC cells were prepared for immunofluorescence analysis with CREST serum (staining shown in FIG. 6 and FIG. 7 in red).

Rat1A cells = test: IC50 in Rat1A cells (Table 2); type: cell-based; settings: 72 h, Rat1A, treatment 72 h; read-out: IC50
Experimental: as §1, §2
(§3) The effect of the compounds chelidonine and protopine on cell division was assessed similarly to corynoline and acetylcorynoline above. As described in Example 6 above, as cells enter and become arrested in mitosis, they detach from the plate surface and appear as rounded cells with a smooth surface membrane. RPE-MBC cells (ectopically expressing oncogenes MYC and Bcl2) were treated with DMSO, chelidonine and protopine, and compared against controls Michael's ketone (MK) and taxol.

aurora-B kinase = test: Phosphorylation of Histone 3 at Ser10 as surrogate of aurora-B kinase activity; type: cell-based
Experimental: Cells were cultured on coverslips in a 6-well plate, fixed with 4% paraformaldehyde and then permeabilized with 0.3% Triton X-100 in PBS. Primary antibody was detected with Texas-Red-conjugated secondary antibodies that were purchased from Jackson ImmunoResearch. After immunostaining, cells were mounted on microscope slides with 4′,6′-diamidino-2-phenylindole (DAPI)-containing Vectashield mounting solution (Vector Laboratories) for detection of fluorescence with an EVOS FL fluorescence microscope (ThermoFisher).

RPE-Neo cells = test: IC50 in RPE-Neo cells (Table 2); type: cell-based, human; settings: Homo sapiens, 72 h, RPE-Neo, treatment 72 h; read-out: IC50
Experimental: as §1
(§4) The following RPE cell lines were used in these studies: RPE NEO, RPE MBH, RPE MBC, RPE MA, RPE MP, RPE MI, and RPE MYC Nick. This RPE series were derived from human retinal pigment epithelium and then stably transfected with an hTERT expression construct for immortalization. The resulting cell line was then engineered to overexpress the MYC oncogene (RPE-MYC) or a Neomycin selection marker gene (RPE-NEO). In RPE-MYC cells, a variety of other oncogenes such as Myr-AKT, BCL2, ID1 and PI3K^E45k were further introduced individually to generate the cell lines RPE MA, RPE MBC, RPE MI, RPE MP, respectively. As a control, H2BGFP was introduced into RPE-MYC cells to generate RPE MBH.
as §3

human cancer cell lines = test: MTT assay, human cancer cell lines; type: cell-based; settings: with the exception of T98G (FIG. 13)
Experimental: as §1, with “μM. Taxol was used as a positive control, which has a known IC50 value of less than 0.02 μM in all tested cell lines.” for “μM.”
The following human cancer cell lines, representing a breadth of cancer subtypes, were used in these studies: Hela, C32, NCI-H23, HCT116 p53-/-, HCT116 wild type, MDA-MB-175IV, MDA-MB-231, MDA-MB-435, MCF-7, A431, H460, TUWI, CaoV-3, T98G, and HTB135.

RPE MBC cells [4] = test: Spindle pole assembly by β-tubulin / Histone H3ser10P immunofluorescence; type: cell-based, human
Experimental: Microtubule assembly, specifically spindle pole assembly, was altered by treatment with acetylcorynoline. RPE MBC cells were treated with acetylcorynoline and Histone H3 Serine 10 Phosphorylation (Histone H3ser10p, shown in FIG. 4 and FIG. 5 in red), β-tubulin (green) and DNA (blue) was analyzed by immunofluorescence microscopy. Histone H3ser10P was used to determine the cells that were in early mitosis (e.g., prometaphase or metaphase). β-tubulin was used to examine microtubule localization and spindle assembly within the cells.
Similarly to corynoline and acetylcorynoline above, it was determined that microtubule assembly, specifically spindle pole assembly, was altered by treatment with chelidonine.

3T3 MEF cells = test: IC50 in 3T3 MEF cells (Table 2); type: cell-based; settings: Mus musculus, MEF, 72 h, 3T3 MEF, treatment 72 h; read-out: IC50
Experimental: as §1, §3

RPE-A19 cells = test: IC50 in RPE-A19 cells (Table 2); type: cell-based, human; settings: Homo sapiens, 72 h, RPE-A19, treatment 72 h; read-out: IC50
Experimental: as §1, §3

[5] = system: all tested cell lines (RPE, Rat1A and human cancer cell lines); test: MTT assay, IC50 across all of the cell lines tested; type: cell-based
RPE-MBH cells = test: IC50 in RPE-MBH cells (Table 1); type: cell-based, human; settings: Homo sapiens, 72 h, RPE-MBH, treatment 72 h; read-out: IC50
Experimental: as §1, §4, §3

Q: How did the “change of IC50 after overexpression of oncogenic factors” value [1] turn out when `CC(=O)O[C@H]1Cc2cc3c(cc2[C@H]2N(C)Cc4c(ccc5c4OCO5)[C@@]12C)OCO3` [Acetylcorynoline, (5bR,6S,12bR)-5b,6,7,12b,13,14-Hexahydro-5b,13-dimethyl-[1,3]benzodioxolo[5,6-c]-1,3-dioxolo[4,5-i]phenanthridin-6-ol 6-acetate] was run?
A: all declined compared with the RPE NEO control, with the exception of the RPE MA cell line

Q: What about the “change of IC50 after overexpression of oncogenes” value [2] of the same molecule?
A: all declined when compared to Rat1 A C

Q: And the “kinetochore arrangement (CREST staining)” value (RPE MBC cells [3])?
A: kinetochore arrangement was disturbed

Q: And the IC50 (Rat1A cells)?
A: 27.4 µM

Q: And the “phosphorylation of Histone 3 at Ser10” value (aurora-B kinase)?
A: not affected

Q: What about the IC50 (RPE-Neo cells) of the same molecule?
A: > 40 µM

Q: And the “IC50 compared with the other compound” value (human cancer cell lines)?
A: higher than those for corynoline

Q: And the “cells in prometaphase (Histone H3ser10P staining)” value (RPE MBC cells [4]; 6 hours of treatment)?
A: Numerous mitotic cells accumulated in prometaphase; also recorded: high numbers of cells arresting in prometaphase

Q: And the “spindle formation (β-tubulin staining)” value (RPE MBC cells [4]; 6 hours of treatment)?
A: monopolar spindles were formed; also recorded: abnormal spindle polarization in mitosis

Q: And the “spindle formation (β-tubulin staining)” value (RPE MBC cells [4]; 24 hours of treatment)?
A: multipolar spindles were formed; also recorded: multipolar spindle formation in mitosis

Q: What about the IC50 (3T3 MEF cells) of the same molecule?
A: 23 µM

Q: What about the IC50 (RPE-A19 cells) of the same molecule?
A: 35.2 µM

Q: What about the IC50 ([5]; Homo sapiens, across all of the cell lines tested (FIG. 9), MTT at 72 h or 96 h, read-out: IC50) of the same molecule?
A: 1 to 31 µM

Q: What about the IC50 ([5]; oncogene-expressing RPE cell lines and human cell lines (FIG. 2, FIG. 3), read-out: IC50, majority of values) of the same molecule?
A: 1 to 31 µM

Q: What about the IC50 (RPE-MBH cells) of the same molecule?
A: 12.6 µM
